Assays:
Experiment in all cases: ≥ marks a high value that may be exact or a test limit, other limits are often not marked, values filed in µg/mL are converted to µM
[1] = tested on: Acinetobacter baumannii 4-MRGN
Enterococcus faecium = tested on: Enterococcus faecium
[2] = tested on: Pseudomonas aeruginosa ATCC 27853
[3] = tested on: Staphylococcus aureus USA 300
[4] = tested on: Candida albicans ATCC 90028
Candida albicans = tested on: Candida albicans
[5] = tested on: Enterobacter cloacae NHTCC 53001
[6] = tested on: Enterococcus faecalis ATCC 29212
[7] = tested on: Escherichia coli 0112 EIEC26
[8] = tested on: Escherichia coli 0112 EIEC27
[9] = tested on: Escherichia coli 0143 EIEC7
[10] = tested on: Escherichia coli 0152 EIEC1
[11] = tested on: Escherichia coli 0164 EIEC6
[12] = tested on: Escherichia coli ATCC 25922
[13] = tested on: Escherichia coli ATCC 35218
[14] = tested on: Escherichia coli AX-054-1-3
[15] = tested on: Escherichia coli AX-100-3-1
[16] = tested on: Escherichia coli AX-109-2-3
[17] = tested on: Escherichia coli AX-128-3-3
[18] = tested on: Escherichia coli O157:H7 282
[19] = tested on: Escherichia coli O157:H7 30328
[20] = tested on: Escherichia coli O157:H7 734/94
[21] = tested on: Escherichia coli O157:H7 CB6392
[22] = tested on: Escherichia coli O26:H- CB6418
[23] = tested on: Escherichia coli O26:H11 3
[24] = tested on: Escherichia coli O6:K15:H31 536
Escherichia coli U7103 = tested on: Escherichia coli U7103
Escherichia coli U7794 = tested on: Escherichia coli U7794
Escherichia coli = tested on: Escherichia coli
[25] = tested on: Klebsiella pneumoniae KK3 9904
[26] = tested on: Proteus mirabilis ATCC 25933
[27] = tested on: Staphylococcus aureus NCTC 8325
Staphylococcus aureus = tested on: Staphylococcus aureus
[28] = tested on: Staphylococcus epidermidis RP62A
[29] = tested on: Acinetobacter baumannii MTCC 9829
[30] = tested on: Alcaligenes faecalis MTCC 1937
[31] = tested on: Alkalihalobacillus alcalophilus MTCC 860
[32] = tested on: Bordetella bronchiseptica MTCC 6837
[33] = tested on: Citrobacter freundii MTCC 1658
[34] = tested on: Citrobacter koseri MTCC 1657
[35] = tested on: Corynebacterium glutamicum MTCC 2679
[36] = tested on: Enterococcus faecalis MTCC 439
[37] = tested on: Escherichia coli K12 MG1655
[38] = tested on: Haemophilus influenzae MTCC 621
[39] = tested on: Klebsiella aerogenes MTCC 111
[40] = tested on: Klebsiella oxytoca MTCC 2275
[41] = tested on: Klebsiella pneumoniae MTCC 7407
[42] = tested on: Pluralibacter gergoviae MTCC 3826
[43] = tested on: Proteus mirabilis MTCC 3158
[44] = tested on: Proteus vulgaris MTCC 1771
[45] = tested on: Pseudomonas aeruginosa MTCC 3542
[46] = tested on: Salmonella enterica MTCC 9844
[47] = tested on: Salmonella enterica subsp. enterica serovar Typhimurium ATCC 14028
[48] = tested on: Shigella boydii MTCC 11947
[49] = tested on: Shigella flexneri MTCC 1457
[50] = tested on: Staphylococcus aureus MTCC 3160
[51] = tested on: Staphylococcus haemolyticus MTCC 3383
[52] = tested on: Stenotrophomonas maltophilia MTCC 1890
[53] = tested on: Vibrio cholerae MTCC 3904
[54] = tested on: Bacillus subtilis ATCC 6633
[55] = tested on: Salmonella enterica subsp. enterica serovar Enteritidis BNCC 103134
[56] = tested on: Staphylococcus aureus ATCC 25923

Measured: MIC

C[C@H](N)C(=O)N[C@H](C(=O)N[C@H]1CSSC[C@@H](C(=O)N[C@@H](CCCN=C(N)N)C(=O)N[C@H](C(=O)NCC(=O)N[C@@H](CCCN=C(N)N)C(=O)O)[C@@H](C)O)NC(=O)[C@H](Cc2ccc(O)cc2)NC1=O)[C@@H](C)O [ATCYCRTGR]
50 µM: [2]
25 µM: [1] | Enterococcus faecium
≥ 50 µM: [3]

CC[C@@H](C)[C@H](N=C(O)[C@H](CCCCN)N=C(O)C(CS)N=C(O)C(C)N=C(O)[C@H](N=C(O)[C@@H](Cc1ccccc1)N=C(O)CN=C(O)[C@H](CC(C)C)N=C(O)CN=C(O)[C@H](N=C(O)[C@H](CCCCN)N=C(O)CN=C(O)[C@H](CC(C)C)N=C(O)[C@H](CC(=N)O)N=C(O)[C@H](CCCCN)N=C(O)[C@H](CC(C)C)N=C(O)[C@H](N=C(O)[C@H](CO)N=C(O)C(CC(C)C)N=C(O)[C@H](CCSC)N=C(O)[C@H](N)CO)C(C)C)C(C)C)C(C)C)C(O)=N[C@H](CC(=N)O)C(O)=N[C@H](CCCCN)C(O)=N[C@H](CCC(=N)O)C(O)=N[C@H](CS)C(=O)O (some centres undefined) [SMLSVLKNLGKVGLGFVACKINKQC]
2 µM: Escherichia coli
20 µM: [5] | [6] | [8] | [9] | [10] | [11] | [12] | [13] | [14] | [15] | [2] | [27] | [28]
5 µM: [18] | [23] | [24] | Escherichia coli U7103
≥ 100 µM: [26]
10 µM: [16] | [17] | [19] | [20] | [21] | [22] | Escherichia coli U7794
70 µM: Candida albicans
50 µM: Staphylococcus aureus
≥ 40 µM: [4] | [7] | [25]

CC[C@H](C)[C@H](NC(=O)[C@H](C)NC(=O)[C@H](CCCN=C(N)N)NC(=O)[C@H](C)NC(=O)[C@H](CC(C)C)NC(=O)[C@@H](N)Cc1ccc(O)cc1)C(=O)N[C@@H](CCCN=C(N)N)C(=O)N[C@@H](CCCN=C(N)N)C(=O)N[C@H](C(=O)N[C@@H](CC(C)C)C(=O)N[C@@H](C)C(=O)N[C@@H](CCCN=C(N)N)C(=O)N[C@@H](CC(C)C)C(=O)N[C@@H](CC(C)C)C(=O)N[C@@H](CC(C)C)C(=O)O)[C@@H](C)O [YLARAIRRTLARLLL]
17.8 µM: [30] | [37] | [39] | [41] | [47] | [48]
8.89 µM: [29] | [31] | [33] | [34] | [40] | [46] | [50] | [51] | [52]
2.22 µM: [32] | [35]
≥ 71.1 µM: [42] | [43] | [44] | [45]
4.45 µM: [38] | [49]
≥ 35.6 µM: [36] | [53]

CC(C)[C@H](NC(=O)[C@H](C)NC(=O)[C@H](CCCN=C(N)N)NC(=O)[C@H](CC(=O)O)NC(=O)[C@@H](NC(=O)[C@H](C)N)C(C)C)C(=O)O [AVDRAV]
≥ 150 µM: [54] | [55]
100 µM: [12] | [56]
